“And” between values parts separate entries of the source, which are not always exact repeats. Identical values can stand only once.
Assays:
Efl1 R1086Q = target: T1, Efl1 R1086Q (Saccharomyces cerevisiae, UniProt P53893, R1086Q); assay: Isothermal titration calorimetry (ITC): binding of guanine nucleotides or Sdo1 to Efl1 R1086Q; settings: for Kd / -TΔSb / ΔGb / ΔHb / ΔCpb: guanine nucleotide; for ΔCpb: from ΔHb at 25–35 °C
T1 construct: made in house; host or cells: Saccharomyces cerevisiae
How it was run: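 ITC at 25–35 °C in 50 mM Tris-HCl pH 8.0, 150 mM NaCl, 5% glycerol, with 5 mM MgCl2 or 2 mM EDTA; 30–50 µM GTPase in cell, 2–3 mM nucleotide titrated, eight-fold Sdo1 excess for complex. Kb, ΔHb, n from one-site fit; Mg isotherms by ternary coupled-equilibria model.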

wild-type Efl1•Sdo1 = tested on: wild-type Efl1•Sdo1; design: method as in PMID 30780079; settings: −Mg^2+, cited from earlier work
[1] = Effect of Mg^2+, Efl1 R1086Q − Sdo1, 25 °C
[2] = Effect of Mg^2+, Efl1 R1086Q − Sdo1, 30 °C
[3] = Effect of Mg^2+, Efl1 R1086Q − Sdo1, 35 °C
[4] = Effect of Sdo1, Efl1 R1086Q + Mg^2+, 25 °C
[5] = Effect of Sdo1, Efl1 R1086Q + Mg^2+, 30 °C
[6] = Effect of Sdo1, Efl1 R1086Q + Mg^2+, 35 °C
[7] = Effect of Sdo1, Efl1 R1086Q − Mg^2+, 25 °C
[8] = Effect of Sdo1, Efl1 R1086Q − Mg^2+, 30 °C
[9] = Effect of Sdo1, Efl1 R1086Q − Mg^2+, 35 °C

T1 sequence (P53893 whole entry R1086Q): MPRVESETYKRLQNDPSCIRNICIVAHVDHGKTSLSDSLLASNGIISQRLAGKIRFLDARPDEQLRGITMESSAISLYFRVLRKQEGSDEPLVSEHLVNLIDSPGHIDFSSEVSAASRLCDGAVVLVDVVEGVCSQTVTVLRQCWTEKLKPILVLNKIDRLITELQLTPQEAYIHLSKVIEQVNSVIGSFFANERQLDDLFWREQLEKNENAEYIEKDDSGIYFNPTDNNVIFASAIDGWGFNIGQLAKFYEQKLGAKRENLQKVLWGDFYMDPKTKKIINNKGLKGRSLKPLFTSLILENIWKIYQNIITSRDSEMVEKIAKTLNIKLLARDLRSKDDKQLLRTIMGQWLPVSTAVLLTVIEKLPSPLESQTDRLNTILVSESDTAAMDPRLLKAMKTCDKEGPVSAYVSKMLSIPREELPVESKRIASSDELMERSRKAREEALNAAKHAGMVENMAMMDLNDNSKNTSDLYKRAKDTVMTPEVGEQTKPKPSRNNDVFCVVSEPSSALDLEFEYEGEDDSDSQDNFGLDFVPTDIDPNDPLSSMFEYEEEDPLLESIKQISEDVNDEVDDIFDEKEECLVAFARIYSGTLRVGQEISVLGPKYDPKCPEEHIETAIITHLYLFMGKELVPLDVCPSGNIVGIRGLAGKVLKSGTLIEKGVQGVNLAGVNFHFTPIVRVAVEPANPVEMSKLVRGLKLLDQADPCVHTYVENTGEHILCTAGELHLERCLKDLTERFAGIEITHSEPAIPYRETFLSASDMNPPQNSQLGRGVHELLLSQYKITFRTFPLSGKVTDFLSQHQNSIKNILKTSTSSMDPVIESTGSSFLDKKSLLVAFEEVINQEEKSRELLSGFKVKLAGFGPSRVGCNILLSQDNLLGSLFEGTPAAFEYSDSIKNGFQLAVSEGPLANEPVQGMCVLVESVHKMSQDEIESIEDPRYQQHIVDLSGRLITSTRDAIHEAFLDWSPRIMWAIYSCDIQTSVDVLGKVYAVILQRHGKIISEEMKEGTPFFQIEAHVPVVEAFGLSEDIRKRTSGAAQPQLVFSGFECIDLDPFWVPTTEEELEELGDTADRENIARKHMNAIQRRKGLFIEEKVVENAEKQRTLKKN

In the case of Nc1nc2c(ncn2[C@@H]2O[C@H](COP(=O)(O)OP(=O)(O)O)[C@@H](O)[C@H]2O)c(=O)[nH]1 [GDP], the “increase in binding enthalpy as temperature increased” value (Efl1 R1086Q; 25 °C to 35 °C) is reported as ~ 6 kcal mol^−1, the “Nconfres (number of residues changing conformation, absolute value)” value (Efl1 R1086Q; +Mg^2+, 30 °C) is reported as 21 and the “Nconfrotb (number of routable bonds changing conformation, absolute value)” value (Efl1 R1086Q; +Mg^2+, 30 °C) is reported as 30. For the same molecule, the ΔCpconf (Efl1 R1086Q; +Mg^2+, 30 °C) was −222 cal mol^−1 K^−1, the ΔSb (Efl1 R1086Q; +Mg^2+, 30 °C) was 7 cal mol^−1 K^−1 and the ΔSconf (Efl1 R1086Q; +Mg^2+, 30 °C) was −49 cal mol^−1 K^−1. For the same molecule, the ΔSsolv (Efl1 R1086Q; +Mg^2+, 30 °C) was 65 cal mol^−1 K^−1, the “−ΔASAconf” value (Efl1 R1086Q; +Mg^2+, 30 °C) was 996 Å^2 and the “-TΔs” value (Efl1 R1086Q; [1]) was -2.3 kcal/mol. For the same molecule, the Δg (Efl1 R1086Q; [1]) was 1.3 kcal/mol, the Δh (Efl1 R1086Q; [1]) was 3.5 kcal/mol and the “κ (heterotropic cooperativity)” value (Efl1 R1086Q; [1]) was 0.1. For the same molecule, the “-TΔs” value (Efl1 R1086Q; [2]) was -2.4 kcal/mol, the Δg (Efl1 R1086Q; [2]) was 1.2 kcal/mol and the Δh (Efl1 R1086Q; [2]) was 3.6 kcal/mol. The “κ (heterotropic cooperativity)” value (Efl1 R1086Q; [2]) was 0.1, the “-TΔs” value (Efl1 R1086Q; [3]) was -2.1 kcal/mol and the Δg (Efl1 R1086Q; [3]) was 1.2 kcal/mol. The Δh (Efl1 R1086Q; [3]) was 3.3 kcal/mol, the “κ (heterotropic cooperativity)” value (Efl1 R1086Q; [3]) was 0.2 and the “-TΔs” value (Efl1 R1086Q; [4]) was -1.6 kcal/mol. The Δg (Efl1 R1086Q; [4]) was -0.6 kcal/mol, the Δh (Efl1 R1086Q; [4]) was 1.0 kcal/mol and the “κ (heterotropic cooperativity)” value (Efl1 R1086Q; [4]) was 2.7. For the same molecule, the “-TΔs” value (Efl1 R1086Q; [5]) was -1.1 kcal/mol, the Δg (Efl1 R1086Q; [5]) was -0.8 kcal/mol and the Δh (Efl1 R1086Q; [5]) was 0.3 kcal/mol. The “κ (heterotropic cooperativity)” value (Efl1 R1086Q; [5]) was 3.6, the “-TΔs” value (Efl1 R1086Q; [6]) was -1.4 kcal/mol and the Δg (Efl1 R1086Q; [6]) was -0.9 kcal/mol. For the same molecule, the Δh (Efl1 R1086Q; [6]) was 0.5 kcal/mol, the “κ (heterotropic cooperativity)” value (Efl1 R1086Q; [6]) was 4.6 and the “-TΔs” value (Efl1 R1086Q; [7]) was -3.1 kcal/mol. The Δg (Efl1 R1086Q; [7]) was 1.06 kcal/mol, the Δh (Efl1 R1086Q; [7]) was 4.2 kcal/mol and the “κ (heterotropic cooperativity)” value (Efl1 R1086Q; [7]) was 0.2. For the same molecule, the “-TΔs” value (Efl1 R1086Q; [8]) was -1.2 kcal/mol, the Δg (Efl1 R1086Q; [8]) was 1.2 kcal/mol and the Δh (Efl1 R1086Q; [8]) was 2.3 kcal/mol. The “κ (heterotropic cooperativity)” value (Efl1 R1086Q; [8]) was 0.1, the Δg (Efl1 R1086Q; [9]) was 1.3 kcal/mol and the Δh (Efl1 R1086Q; [9]) was 1.2 kcal/mol. The “κ (heterotropic cooperativity)” value (Efl1 R1086Q; [9]) was 0.1, the Kd (Efl1 R1086Q; +Mg^2+, 25 °C) was 24 ± 3 µM and the Kd (Efl1 R1086Q; +Mg^2+, 30 °C) was 28 ± 6 µM. It also gave a Kd (Efl1 R1086Q; +Mg^2+, 35 °C) of 29 ± 8 µM, a Kd (Efl1 R1086Q; −Mg^2+, 25 °C) of 3 ± 0.4 µM and a Kd (Efl1 R1086Q; −Mg^2+, 30 °C) of 4 ± 0.6 µM. For the same molecule, the Kd (Efl1 R1086Q; −Mg^2+, 35 °C) was 4 ± 0.6 µM, the “-TΔSb” value (Efl1 R1086Q; +Mg^2+, 25 °C) was -3.19 kcal/mol and the ΔGb (Efl1 R1086Q; +Mg^2+, 25 °C) was -6.29 kcal/mol. For the same molecule, the ΔHb (Efl1 R1086Q; +Mg^2+, 25 °C) was -3.1 ± 0.1 kcal/mol, the “-TΔSb” value (Efl1 R1086Q; +Mg^2+, 30 °C) was -2.20 kcal/mol and the ΔGb (Efl1 R1086Q; +Mg^2+, 30 °C) was -6.30 kcal/mol. The ΔHb (Efl1 R1086Q; +Mg^2+, 30 °C) was -4.1 ± 0.6 kcal/mol, the “-TΔSb” value (Efl1 R1086Q; +Mg^2+, 35 °C) was -0.59 kcal/mol and the ΔGb (Efl1 R1086Q; +Mg^2+, 35 °C) was -6.39 kcal/mol. The ΔHb (Efl1 R1086Q; +Mg^2+, 35 °C) was -5.8 ± 0.2 kcal/mol, the ΔCpb (Efl1 R1086Q; +Mg^2+) was −270 ± 40 cal mol^−1 K^−1 and −270 cal mol^−1 K^−1 and the “-TΔSb” value (Efl1 R1086Q; −Mg^2+, 25 °C) was -0.94 kcal/mol. For the same molecule, the ΔGb (Efl1 R1086Q; −Mg^2+, 25 °C) was -7.54 kcal/mol, the ΔHb (Efl1 R1086Q; −Mg^2+, 25 °C) was -6.6 ± 0.2 kcal/mol and the “-TΔSb” value (Efl1 R1086Q; −Mg^2+, 30 °C) was 0.22 kcal/mol. The ΔGb (Efl1 R1086Q; −Mg^2+, 30 °C) was -7.47 kcal/mol, the ΔHb (Efl1 R1086Q; −Mg^2+, 30 °C) was -7.7 ± 0.3 kcal/mol and the “-TΔSb” value (Efl1 R1086Q; −Mg^2+, 35 °C) was 1.55 kcal/mol. For the same molecule, the ΔGb (Efl1 R1086Q; −Mg^2+, 35 °C) was -7.55 kcal/mol, the ΔHb (Efl1 R1086Q; −Mg^2+, 35 °C) was -9.1 ± 0.3 kcal/mol and the ΔCpb (Efl1 R1086Q; −Mg^2+) was −250 cal mol^−1 K^−1 and −250 ± 17 cal mol^−1 K^−1. For the same molecule, the “surface buried by the conformational change” value (Efl1 R1086Q; refers to Table 3, 30 °C) was ~ 1000 Å, the “Nconfres (number of residues changing conformation, absolute value)” value (Efl1 R1086Q; −Mg^2+, 30 °C) was 21 and the ΔCpconf (Efl1 R1086Q; −Mg^2+, 30 °C) was −220 cal mol^−1 K^−1. The ΔSb (Efl1 R1086Q; −Mg^2+, 30 °C) was −1 cal mol^−1 K^−1, the ΔSconf (Efl1 R1086Q; −Mg^2+, 30 °C) was −53 cal mol^−1 K^−1 and the ΔSsolv (Efl1 R1086Q; −Mg^2+, 30 °C) was 60 cal mol^−1 K^−1. The “−ΔASAconf” value (Efl1 R1086Q; −Mg^2+, 30 °C) was 987 Å^2, the “-TΔSb” value (wild-type Efl1•Sdo1; 30 °C) was 1.5 kcal/mol and the Kd (wild-type Efl1•Sdo1; 30 °C) was 52 µM. For the same molecule, the ΔGb (wild-type Efl1•Sdo1; 30 °C) was -5.9 kcal/mol, the ΔHb (wild-type Efl1•Sdo1; 30 °C) was -7.4 ± 0.0 kcal/mol and the ΔCpb (wild-type Efl1•Sdo1) was −640 cal mol^−1 K^−1 and −640 ± 34 cal mol^−1 K^−1.

From paper PMC9405973, “Altered Conformational Landscape upon Sensing Guanine Nucleotides in a Disease Mutant of Elongation Factor-like 1 (EFL1) GTPase” (Biomolecules, 2022)
